Assay results reported in ChEMBL document CHEMBL1155860, “Structure-activity relationship study of bone morphogenetic protein (BMP) signaling inhibitors” (Bioorg Med Chem Lett, 2008).

System: not listed separately
Assay: Metabolic stability in mouse liver microsomes assessed as half life
Format: ADME, Microsome
Conditions: not given

Row | half-life [min] | SMILES
1 | 13.3 | CN1CCN(CCOc2ccc(-c3cnc4c(-c5ccnc6ccccc56)cnn4c3)cc2)CC1

System: not listed separately
Assay: Tmax in male C57B16 mouse at 3.0 mg/kg, ip
Format: ADME, organism-based
Set-up: dose 3 mg/kg, route intraperitoneal
Conditions: in vivo

Row | Tmax [min] | SMILES
2 | < 5 | c1ccc2c(-c3cnn4cc(-c5ccc(N6CCNCC6)cc5)cnc34)ccnc2c1

System: not listed separately
Assay: Tmax in female C57B16 mouse at 3.0 mg/kg, ip
Format: ADME, organism-based
Set-up: dose 3 mg/kg, route intraperitoneal
Conditions: in vivo

Row | Tmax [min] | SMILES
3 | < 5 | c1ccc2c(-c3cnn4cc(-c5ccc(N6CCNCC6)cc5)cnc34)ccnc2c1

System: not listed separately
Assay: Metabolic stability in mouse liver microsomes assessed as intrinsic clearance
Format: ADME, Microsome
Conditions: not given

Row | microsomal CLint [µL/min/mg] | SMILES
4 | 104 | CN1CCN(CCOc2ccc(-c3cnc4c(-c5ccnc6ccccc56)cnn4c3)cc2)CC1

System: not listed separately
Assay: Half life in female C57B16 mouse at 3.0 mg/kg, ip
Format: ADME, organism-based
Set-up: dose 3 mg/kg, route intraperitoneal
Conditions: in vivo

Row | half-life [min] | SMILES
5 | 96 | c1ccc2c(-c3cnn4cc(-c5ccc(N6CCNCC6)cc5)cnc34)ccnc2c1

Molecular target: T1, Bone morphogenetic protein 4 (Homo sapiens, UniProt P12644)
T1 sequence (P12644 whole entry): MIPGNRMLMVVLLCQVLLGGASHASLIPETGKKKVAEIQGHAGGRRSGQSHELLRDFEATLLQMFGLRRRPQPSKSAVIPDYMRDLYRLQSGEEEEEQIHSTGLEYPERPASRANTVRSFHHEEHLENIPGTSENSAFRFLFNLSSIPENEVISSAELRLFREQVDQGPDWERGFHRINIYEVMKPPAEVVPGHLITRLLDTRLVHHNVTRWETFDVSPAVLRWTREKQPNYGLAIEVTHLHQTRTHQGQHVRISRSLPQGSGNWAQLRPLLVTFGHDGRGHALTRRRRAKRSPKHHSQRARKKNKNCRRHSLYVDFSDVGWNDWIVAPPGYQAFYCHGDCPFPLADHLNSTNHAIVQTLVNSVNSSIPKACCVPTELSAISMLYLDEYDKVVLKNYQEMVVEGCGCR
Assay: Inhibition of BMP4-induced phosphorylation of SMAD 1/5/8 by cytoblot cellular ELISA
Conditions: not given

Row | IC50 [nM] | SMILES
6 | 55 | COc1ccc(-c2cnc3c(-c4ccnc5ccccc45)cnn3c2)cc1
7 | > 20000 | COc1ccc(-c2cnc3c(-c4ccc5ncccc5c4)cnn3c2)cc1
8 | > 20000 | c1cncc(-c2cnn3cc(-c4ccc(OCCN5CCCCC5)cc4)cnc23)c1
9 | > 20000 | c1cc2ncc(-c3ccc(OCCN4CCCCC4)cc3)cn2n1
10 | 20000 | c1cc(-c2cnc3c(-c4ccnc5ccccc45)cnn3c2)cc(N2CCNCC2)c1
11 | 500 | COc1ccc(-c2cnc3c(-c4ccnc5cc(Cl)ccc45)cnn3c2)cc1
12 | 750 | c1ccc(-c2cnc3c(-c4ccnc5ccccc45)cnn3c2)cc1
13 | 90 | c1ccc2c(-c3cnn4cc(-c5ccc(OCCN6CCCCC6)cc5)cnc34)ccnc2c1
14 | 2000 | c1cc(-c2cnn3cc(-c4ccc(OCCN5CCOCC5)cc4)cnc23)ccn1
15 | 5 | c1ccc2c(-c3cnn4cc(-c5ccc(N6CCNCC6)cc5)ccc34)ccnc2c1
16 | > 20000 | COc1ccc(-c2cnc3c(-c4cnc5ccccc5c4)cnn3c2)cc1
17 | 2600 | c1ccc2c(-c3ccn4cc(-c5ccc(OCCN6CCCCC6)cc5)cnc34)ccnc2c1
18 | 4500 | CN1CCN(CCOc2cccc(-c3cnc4c(-c5ccncc5)cnn4c3)c2)CC1
19 | 3300 | CN1CCN(CCOc2ccc(-c3cnc4c(-c5ccncc5F)cnn4c3)cc2)CC1
20 | 6500 | COc1ccc(-c2cnc3c(-c4ccncc4)cnn3c2)cc1
21 | 4.9 | c1ccc2c(-c3cnn4cc(-c5ccc(N6CCNCC6)cc5)cnc34)ccnc2c1
22 | > 20000 | Cc1nn2cc(-c3ccc(OCCN4CCN(C)CC4)cc3)cnc2c1-c1ccncc1
23 | 150 | COc1ccc(-c2ccc3c(-c4ccnc5ccccc45)cnn3c2)cc1
24 | 3000 | COc1ccc(-c2cnc3c(-c4cccc5ncccc45)cnn3c2)cc1
25 | > 20000 | COc1ccc(-c2cnc3c(-c4cccc5cccnc45)cnn3c2)cc1
26 | 500 | CCN(CC)CCOc1ccc(-c2cnc3c(-c4ccncc4)cnn3c2)cc1
27 | 250 | Oc1ccc(-c2cnc3c(-c4ccnc5ccccc45)cnn3c2)cc1
28 | > 20000 | COC(=O)c1cc(-c2ccnc3ccccc23)c2ncc(-c3ccc(OC)cc3)cn12
29 | 350 | Clc1ccc2c(-c3cnn4cc(-c5ccc(N6CCNCC6)cc5)cnc34)ccnc2c1
30 | 5000 | c1ccc2c(-c3cnn4cccnc34)ccnc2c1
31 | > 20000 | COc1ccc(-c2cnc3c(-c4ccnc5ccccc45)ccn3c2)cc1
32 | 450 | CN1CCN(CCOc2ccc(-c3cnc4c(-c5ccncc5)cnn4c3)cc2)CC1
33 | > 20000 | c1ccc(-c2cnn3cc(-c4ccc(OCCN5CCCCC5)cc4)cnc23)cc1
34 | 10 | CN1CCN(CCOc2ccc(-c3cnc4c(-c5ccnc6ccccc56)cnn4c3)cc2)CC1

Row | SMILES | IC50 [nM]
35 | c1cc(-c2cnn3cc(-c4ccc(OCCN5CCCCC5)cc4)cnc23)ccn1 [DORSOMORPHIN] | 430
